What was measured:
[1] = Molar enthalpy of transition or fusion; conditions: Crystal; DSC

O=C([O][Sb]([c]1ccccc1)([c]1ccccc1)([c]1ccccc1)[c]1ccccc1)c1ccccc1 [tetraphenylantimony benzoate]
Conditions | Molar enthalpy of transition or fusion [kcal/mol]
[1] | 6.31

101.33 kPa
Conditions | mass density [kg/m3] | molar entropy [J/K/mol]
5 K, Crystal, Small (less than 1 g) adiabatic calorimetry | – | 0.567
10 K, Crystal, Small (less than 1 g) adiabatic calorimetry | – | 4.1
15 K, Crystal, Small (less than 1 g) adiabatic calorimetry | – | 11.1
20 K, Crystal, Small (less than 1 g) adiabatic calorimetry | – | 20.79
25 K, Crystal, Small (less than 1 g) adiabatic calorimetry | – | 31.83
30 K, Crystal, Small (less than 1 g) adiabatic calorimetry | – | 43.78
35 K, Crystal, Small (less than 1 g) adiabatic calorimetry | – | 56.29
40 K, Crystal, Small (less than 1 g) adiabatic calorimetry | – | 69.07
45 K, Crystal, Small (less than 1 g) adiabatic calorimetry | – | 81.95
50 K, Crystal, Small (less than 1 g) adiabatic calorimetry | – | 94.78
60 K, Crystal, Small (less than 1 g) adiabatic calorimetry | – | 120.2
70 K, Crystal, Small (less than 1 g) adiabatic calorimetry | – | 145.3
80 K, Crystal, Small (less than 1 g) adiabatic calorimetry | – | 169.9
90 K, Crystal, Small (less than 1 g) adiabatic calorimetry | – | 194.1
100 K, Crystal, Small (less than 1 g) adiabatic calorimetry | – | 217.6
120 K, Crystal, Small (less than 1 g) adiabatic calorimetry | – | 262.3
140 K, Crystal, Small (less than 1 g) adiabatic calorimetry | – | 305.1
160 K, Crystal, Small (less than 1 g) adiabatic calorimetry | – | 346.3
180 K, Crystal, Small (less than 1 g) adiabatic calorimetry | – | 386.3
200 K, Crystal, Small (less than 1 g) adiabatic calorimetry | – | 425.4
220 K, Crystal, Small (less than 1 g) adiabatic calorimetry | – | 463.9
240 K, Crystal, Small (less than 1 g) adiabatic calorimetry | – | 501.9
260 K, Crystal, Small (less than 1 g) adiabatic calorimetry | – | 539.8
273.15 K, Crystal, Small (less than 1 g) adiabatic calorimetry | – | 564.6
280 K, Crystal, Small (less than 1 g) adiabatic calorimetry | – | 577.5
298.15 K, Crystal, Small (less than 1 g) adiabatic calorimetry | – | 611.7
298.15 K, Crystal, X-ray diffraction | 1438 | –
300 K, Crystal, Small (less than 1 g) adiabatic calorimetry | – | 615.3
320 K, Crystal, Small (less than 1 g) adiabatic calorimetry | – | 653.4
340 K, Crystal, Small (less than 1 g) adiabatic calorimetry | – | 691
360 K, Crystal, Small (less than 1 g) adiabatic calorimetry | – | 729
380 K, Crystal, Small (less than 1 g) adiabatic calorimetry | – | 768
400 K, Crystal, Small (less than 1 g) adiabatic calorimetry | – | 807
420 K, Crystal, Small (less than 1 g) adiabatic calorimetry | – | 848
437.5 K, Crystal, Small (less than 1 g) adiabatic calorimetry | – | 881
437.5 K, Liquid, DSC | – | 940
440 K, Liquid, DSC | – | 948
460 K, Liquid, DSC | – | 989
480 K, Liquid, DSC | – | 1030

Conditions | Normal melting temperature [°C]
Crystal, DTA | 164.4

Reference: the NIST ThermoML archive (doi:10.1016/j.jct.2018.11.011)
